This is an account of results in patent US11253524B2 (Gilead Sciences, Inc., priority 2018, dated 2022).

Data set [1] is described as follows: In vivo BIC metabolism, plasma profile after oral [14C]BIC, monkey. Also noted: species or system Cynomolgus Monkey. Conditions: monkeys, 0 to 72 hours post dose, ND = not detected. The source says: Metabolic pathways included hydroxylation, oxidative defluorination, direct glucuronidation, and oxidation followed by phase II conjugation. In the monkey, BIC was metabolized through the oxidative pathways to a greater extent compared to rat and human.

A short description of data set [2]: Phase 1 mass-balance study, [14C]bictegravir metabolite profiling in plasma, urine and feces. As to conditions: for % of administered dose in feces: feces pooled per individual subject, 0 to 144 hours postdose, average of 8 subjects; for % of plasma AUC0-72 h of total radioactivity: human plasma, AUC pool 0-72 h, single oral 100 mg [14C]bictegravir; for % of administered dose in urine: human urine pooled 0 to 96 hours postdose. From the text:
A total of eight patents were enrolled. Subjects were healthy male nonsmokers, 18 to 45 years of age, inclusive, with a body mass index (BMI) from 19 to 30 kg/m2, inclusive, normal 12-lead electrocardiogram (ECG), normal renal function, no significant medical history, and in good general health, as determined by the investigator at the screening evaluation performed no more than 28 days prior to the scheduled first dose.
Treatment involved a single, oral dose followed by a 6- to 21-day sample collection period, the exact duration of which was based on recovery of radiolabeled drug. […] Following administration, the dosing container was rinsed twice, each rinse with approximately 50 mL of cranberry juice, and administered to the subject. The entire study drug solution and cranberry juice rinse (total of approximately 140 mL) was taken within a 10 minute window. […]
Urine: Metabolite profiling and quantitation in urine was performed with samples pooled for individual subjects within the period of 0 to 96 hours postdose.
Feces: Metabolite profiling and quantitation in feces was performed with the feces samples pooled for individual subjects.
Metabolite Quantitation: LC-Radio-chromatograms of the pooled plasma, urine, and feces samples were obtained.

Data set [3] has as its target T1, OATP1B1 (Homo sapiens, UniProt Q9Y6L6).
T1 sequence (Q9Y6L6 1-691): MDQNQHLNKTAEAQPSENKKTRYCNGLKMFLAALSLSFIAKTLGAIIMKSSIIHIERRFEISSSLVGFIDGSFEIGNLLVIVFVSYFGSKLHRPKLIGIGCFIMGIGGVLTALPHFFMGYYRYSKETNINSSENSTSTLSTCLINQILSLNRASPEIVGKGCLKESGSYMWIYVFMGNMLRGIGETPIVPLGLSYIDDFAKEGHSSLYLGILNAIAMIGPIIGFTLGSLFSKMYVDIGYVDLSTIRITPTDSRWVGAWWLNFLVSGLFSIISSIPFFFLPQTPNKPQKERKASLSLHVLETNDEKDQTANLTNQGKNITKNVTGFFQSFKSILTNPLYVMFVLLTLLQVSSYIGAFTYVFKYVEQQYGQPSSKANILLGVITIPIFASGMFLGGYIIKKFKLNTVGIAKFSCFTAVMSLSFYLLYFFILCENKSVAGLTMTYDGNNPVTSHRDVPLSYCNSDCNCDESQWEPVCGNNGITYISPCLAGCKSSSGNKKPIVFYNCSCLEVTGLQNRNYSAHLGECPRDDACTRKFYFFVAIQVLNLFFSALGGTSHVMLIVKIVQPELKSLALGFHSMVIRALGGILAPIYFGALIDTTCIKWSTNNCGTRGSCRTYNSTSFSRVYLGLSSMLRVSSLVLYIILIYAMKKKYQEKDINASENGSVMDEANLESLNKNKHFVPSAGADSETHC
In words: OATP1B1 inhibition assay using Fluo-3 as probe substrate, CHO cells. The format is cell-based. More on the design: expressed in transfected cells; host or cells: CHO cells. Conditions: for IC50: OATP1B1, Fluo-3; for inhibition at 1 h, 100 µM: human, CHO cells transfected with human OATP1B1, pH 7.4, probe Fluo-3 (2 μM), OATP1B1, Fluo-3, at 100 μM, read-out: Maximum inhibition at highest test conc. (% of control). Here is the method: Chinese Hamster Ovary (CHO) cells, either wild type or transfected with the genes encoding human OATP1B1 or OATP1B3, were maintained in Dulbecco's Modification of Eagle's Medium (DMEM) containing 1,000 mg/L D-glucose, L-glutamine, 25 mM HEPES buffer, and 110 mg/L sodium pyruvate, 1% Pen/Strep, 10% fetal bovine serum, 0.05 mg/mL L-proline and 0.5 mg/mL of geneticin G-418. Cells were maintained in incubators set at 37° C., 90% humidity and 5% CO2. OATP1B1 or OATP1B3 overexpressing CHO cells were seeded in BioCoat Poly-D-Lysine coated 96 well black cell culture plates with clear bottoms at a density of 1×10^5 cells/well. Sodium butyrate (10 mM) was added to the OATP1B1 and OATP1B3 cells to increase the protein expression level, and the cells were grown to confluence overnight. The assay buffer contained 142 mM NaCl, 5 mM KCl, 1 mM KH2PO4, 1.2 mM MgSO4, 1.5 mM CaCl2, 5 mM Glucose and 12.5 mM HEPES (pH 7.4). After removal of the media and before adding test compounds, the cells were washed twice with 37° C. assay buffer followed by a 0.5 h pre-incubation with assay buffer. Test compounds were serially diluted in DMSO at 250-fold of final test concentrations to create the compound spiking solutions. Compounds were then spiked into assay buffer containing 2 μM Fluo-3 and incubated with cells for 1 h. Following removal of assay buffer containing Fluo-3 and test compound, cells were washed 3 times with 200 μl of ice cold assay buffer and then lysed at room temperature for 15 minutes in a lysis buffer containing […] in a 1 mM CaCl2 solution. Substrate accumulations were determined for Fluo-3 fluorescence at an excitation of 485 nm and emission of 530 nm.
Percent inhibition was calculated according to the following equation: % inhibition=[1−{[OATP]i−[WT]ni}/{[OATP]ni−[WT]ni}]*100 where: [OATP]i represent the substrate accumulation in the presence of test compound for either OATP1B1, OATP1B3, or OATP2B1 cells; [OATP]ni represents the substrate accumulation in the absence of test compound for either OATP1B1, OATP1B3, or OATP2B1 cells, respectively; and [WT]ni represents the substrate accumulation in the absence of test compound for wild type cells or Mock cells, respectively. IC50 Determination in Transporter Assays
IC50 was determined according to the procedures described in Example 5. […] Results are reported as NIO (no interaction observed).

Marks after values point to notes of the source that are not given here.

Take `O=C(NCc1c(F)cc(F)cc1F)c1cn2c(c(O)c1=O)C(=O)N1[C@H]3CC[C@H](C3)O[C@@H]1C2` [BIC, bictegravir, reference compound]: the “% of Total Radioactivity in AUC Pooled Plasma” value (from here on “% of Total Radioactivity”) in data set [1] came out at 80.2%. In addition, the “% of administered dose in feces” value in data set [2] stood at 30.6%. The “% of plasma AUC0-72 h of total radioactivity” value was 67.9% in data set [2], 67.9% in data set [2] (listed as [^14C]Bictegravir) and “approximately 67.9%” in data set [2] (listed as [^14C]bictegravir). Moreover, in data set [2], the “% of administered dose in urine” value worked out at 3.6%.

For orientation: IC50 means the concentration needed to halve the response being measured. For orientation: inhibition means the drop in the measured response relative to a control, in per cent. For the molecule `O=C(NCc1c(F)cc(F)c(O)c1F)c1cn2c(c(O)c1=O)C(=O)N1[C@H]3CC[C@H](C3)O[C@@H]1C2` [Metabolite M23], in data set [3], the IC50 is 99.9 µM and the inhibition at 1 h, 100 µM is 51%. Besides, in data set [2], the “% of administered dose in feces” value was determined as 3.6% and the “% of plasma AUC0-72 h of total radioactivity” value was 0.2^c %.

Take `O=C(NCc1c(F)cc(F)cc1F)c1cn2c(c(O[C@@H]3O[C@H](C(=O)O)[C@@H](O)[C@H](O)[C@H]3O)c1=O)C(=O)N1[C@H]3CC[C@H](C3)O[C@@H]1C2` [Metabolite M15]: in data set [1], the “% of Total Radioactivity” value turned out to be 0.55%. For the same molecule, in data set [3], the IC50 was > 100 µM and the inhibition at 1 h, 100 µM came to 39%. For the same molecule, in data set [2], the “% of plasma AUC0-72 h of total radioactivity” value is given as 8.6% and the “% of administered dose in urine” value turned out to be 21.4%.

`O=C(NCc1c(F)cc(F)c(OS(=O)(=O)O)c1F)c1cn2c(c(O)c1=O)C(=O)N1C(C2)O[C@@H]2CC[C@H]1C2` (stereo partly shown) [Metabolite M20]: the “% of Total Radioactivity” value in data set [1] amounted to 0.77%. In data set [3], 90.1 µM corresponded to half-maximal inhibition (IC50) and the inhibition at 1 h, 100 µM came out at 54%. In data set [2], the “% of plasma AUC0-72 h of total radioactivity” value was found to be 20.1%.
